Measurements reported in patent US12178842B2, “PCSK9 antagonist compounds” (MERCK SHARP & DOHME LLC, priority 2019, dated 2024).

Experiments:
Type in all cases: binding
PCSK9 [1] = target: T1, PCSK9 (Homo sapiens, UniProt Q8NBP7); assay: PCSK9 Alexa FRET Plus TR-FRET assay
T1 construct: biotin (biotinylated); purchased
Protocol: A separate solution containing 1920 nM of the AlexaFluor tagged cyclic peptide is made in the same buffer system. […] The reaction is incubated at room temperature for at least two hours prior to fluorescence measurements using an Envision Multilabel Reader. IC50 values are determined by fitting data to a sigmoidal dose-response curve using nonlinear regression. Ki is then calculated from the Ic50 and the KD of AF cyclic peptide. Counts (B-counts) of the europium-labeled PCSK9 are followed to observe if compounds are adversely affecting PCSK9. A fall off of the B-counts is likely indicates a false positive of inhibition. Data from this procedure is reported as “P=‘numerical value’ (nanomolar)”

PCSK9 [2] = target: T1, PCSK9; assay: PCSK9 Alexa FRET Ultra TR-FRET assay
Protocol: A separate solution containing 1920 nM of the AlexaFluor tagged cyclic peptide is made in the same buffer system. […] The reaction is incubated at room temperature for at least two hours prior to fluorescence measurements using an Envision Multilabel Reader. IC50 values are determined by fitting data to a sigmoidal dose-response curve using nonlinear regression. Ki is then calculated from the Ic50 and the KD of AF cyclic peptide. Counts (B-counts) of the europium-labeled PCSK9 are followed to observe if compounds are adversely affecting PCSK9. A fall off of the B-counts is likely indicates a false positive of inhibition. Data from this procedure is reported as “Ki Ultra=‘numerical value’ (data reported is nanomolar)”

PCSK9 [3] = target: T1, PCSK9; assay: PCSK9 Alexa FRET Standard TR-FRET assay; settings: Ki calculated from IC50 and KD of AF cyclic peptide Reagent A; 0.5 nM PCSK9, 20 nM AF cyclic peptide; read-out: Alexa FRET Stdt TR-FRET
Protocol: A solution containing 1 nM biotinylated PCSK9+2.5 nM Lance Streptavidin Europium (Strep-Eu) is made in 50 mM HEPES pH 7.4, 0.15 M NaCl, 5 mM CaCl2, 0.01% BSA, and 0.01% Surfactant P20. A separate solution containing 40 nM of the AlexaFluor tagged cyclic peptide is made in the same buffer system. An Echo is used to transfer 0.750 ul of compound to an assay plate followed by the addition of 15 ul of PCSK9+Stept-Eu and 15 ul of AF peptide. The final assay volume is 30.750 ul containing 0.5 nM PCSK9, 1.25 nM Strep-Eu, and 20 nM AF cyclic peptide. The reaction is incubated at room temperature for at least two hours prior to fluorescence measurements using an Envision Multilabel Reader. IC50 values are determined by fitting data to a sigmoidal dose-response curve using nonlinear regression. Ki is then calculated from the Ic50 and the KD of AF cyclic peptide. Counts (B-counts) of the europium-labeled PCSK9 are followed to observe if compounds are adversely PCSK9. A fall off of the B-counts likely indicates a false positive of inhibition. Data from this procedure is reported as “A=‘numerical value’ (nanomolar)”

[4] = Ki calculated from IC50 and KD of AF cyclic peptide Reagent B, 0.5 nM PCSK9, 960 nM AF cyclic peptide, read-out: Alexa FRET Plus TR-FRET
[5] = Ki Ultra, calculated from IC50 and KD of AF cyclic peptide, 0.5 nM PCSK9, 960 nM AF cyclic peptide, read-out: Alexa FRET Ultra TR-FRET

T1 sequence (Q8NBP7 153-692): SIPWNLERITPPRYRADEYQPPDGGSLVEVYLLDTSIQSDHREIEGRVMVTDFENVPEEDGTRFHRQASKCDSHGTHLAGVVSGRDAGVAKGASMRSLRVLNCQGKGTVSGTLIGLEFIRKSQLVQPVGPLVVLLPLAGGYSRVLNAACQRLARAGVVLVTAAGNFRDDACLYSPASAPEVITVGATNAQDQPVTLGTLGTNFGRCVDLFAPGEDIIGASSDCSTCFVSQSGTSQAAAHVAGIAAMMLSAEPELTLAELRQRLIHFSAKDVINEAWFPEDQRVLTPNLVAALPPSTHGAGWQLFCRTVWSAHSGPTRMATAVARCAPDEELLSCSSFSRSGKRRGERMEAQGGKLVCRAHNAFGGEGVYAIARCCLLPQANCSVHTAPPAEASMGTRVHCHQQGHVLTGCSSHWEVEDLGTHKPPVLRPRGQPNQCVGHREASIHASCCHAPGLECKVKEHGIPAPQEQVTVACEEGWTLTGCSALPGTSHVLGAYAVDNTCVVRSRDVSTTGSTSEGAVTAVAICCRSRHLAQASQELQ

SMILES	Ki (PCSK9 [1]; [4]) [nM]	Ki (PCSK9 [2]; [5]) [nM]	Ki (PCSK9 [3]) [nM]	Ki (PCSK9 [1]) [nM]	Ki (PCSK9 [2]) [nM]
COc1ccc(C[C@@H]2NC(=O)[C@H]([C@@H](C)O)NC(=O)[C@@H]3[C@@H]4CCN3C(=O)[C@@H]3Cc5cn(c6ccc(F)cc56)C/C=C/CCCN(Cc5ccc(cc5)CCNC(=O)[C@]5(C)CCCN5C2=O)C(=O)CCC(=O)N[C@@H](C)C(=O)N[C@H](CNC(=O)CCCCC[N+](C)(C)CCNC(=O)COCCOCCNC(=O)COCCOCCNC(=O)CC[C@H](NC(=O)CCCCCCCCCCCCCCCCC(=O)O)C(=O)O)C(=O)N[C@@H](Cc2cccc(c2)CNC(=O)CO4)C(=O)N3)cc1 [Ex-25]	0.006	0.009	< 1.26		
COc1ccc(C[C@@H]2NC(=O)[C@H]([C@@H](C)O)NC(=O)[C@@H]3[C@@H]4CCN3C(=O)[C@@H]3Cc5cn(c6ccc(F)cc56)CCCCCCN(Cc5ccc(cc5)CCNC(=O)[C@]5(C)CCCN5C2=O)C(=O)CCC(=O)N[C@@H](C)C(=O)N[C@H](CN(CCC[N+](C)(C)C)C(=O)COCCOCCNC(=O)COCCOCCNC(=O)CC[C@H](NC(=O)CCCCCCCCCCCCCCCCC(=O)O)C(=O)O)C(=O)N[C@@H](Cc2cccc(c2)CNC(=O)CO4)C(=O)N3)cc1 [Ex-17]	0.016	0.018	< 1.26		
COc1ccc(C[C@@H]2NC(=O)[C@H]([C@@H](C)O)NC(=O)[C@@H]3[C@@H]4CCN3C(=O)[C@@H]3Cc5cn(c6ccc(F)cc56)CCCCCCN(Cc5ccc(cc5)CCNC(=O)[C@]5(C)CCCN5C2=O)C(=O)CCC(=O)N[C@@H](C)C(=O)N[C@H](CNC(=O)CCOCCOCC[N+](C)(C)CCNC(=O)COCCOCCNC(=O)COCCOCCNC(=O)CC[C@H](NC(=O)CC[C@H](NC(=O)CCCCCCCCCCCCCCC(=O)O)C(=O)O)C(=O)O)C(=O)N[C@@H](Cc2cccc(c2)CNC(=O)CO4)C(=O)N3)cc1 [Ex-34]	< 0.006	0.003	< 1.26		
COc1ccc(C[C@@H]2NC(=O)[C@H]([C@@H](C)O)NC(=O)[C@@H]3[C@@H]4CCN3C(=O)[C@@H]3Cc5cn(c6ccc(F)cc56)C/C=C/CCCN(Cc5ccc(cc5)CCNC(=O)[C@]5(C)CCCN5C2=O)C(=O)CCC(=O)N[C@@H](C)C(=O)N[C@H](CNC(=O)CCOCCOCC[N+](C)(C)CCNC(=O)COCCOCCNC(=O)COCCOCCNC(=O)CC[C@H](NC(=O)CCCCCCCCCCCCCCC(=O)O)C(=O)O)C(=O)N[C@@H](Cc2cccc(c2)CNC(=O)CO4)C(=O)N3)cc1 [compound 46]			< 1.26	< 0.006	0.001
COc1ccc(C[C@@H]2NC(=O)[C@H]([C@@H](C)O)NC(=O)[C@@H]3[C@@H]4CCN3C(=O)[C@@H]3Cc5cn(c6ccc(F)cc56)CCCCCCN(Cc5ccc(cc5)CCNC(=O)[C@]5(C)CCCN5C2=O)C(=O)CCC(=O)N[C@@H](C)C(=O)N[C@H](CNC(=O)COCCOCC[N+](C)(C)CCNC(=O)COCCOCCNC(=O)COCCOCCNC(=O)CC[C@H](NC(=O)CCCCCCCCOCCCCCCCCC(=O)O)C(=O)O)C(=O)N[C@@H](Cc2cccc(c2)CNC(=O)CO4)C(=O)N3)cc1 [Ex-50]			< 1.26	< 0.006	0.005
COc1ccc(C[C@@H]2NC(=O)[C@H]([C@@H](C)O)NC(=O)[C@@H]3[C@@H]4CCN3C(=O)[C@@H]3Cc5cn(c6ccc(F)cc56)CCCCCCN(Cc5ccc(cc5)CCNC(=O)[C@]5(C)CCCN5C2=O)C(=O)CCC(=O)N[C@@H](C)C(=O)N[C@H](CNC(=O)COCCOCCNC(=O)COCCOCCNC(=O)CC[C@H](NC(=O)CC[C@H](NC(=O)CCOCCOCC[N+](C)(C)CCNC(=O)CCCCCCCCCCCCCCC(=O)O)C(=O)O)C(=O)O)C(=O)N[C@@H](Cc2cccc(c2)CNC(=O)CO4)C(=O)N3)cc1 [compound 37]	< 0.006	0.006	< 1.26		
COc1ccc(C[C@@H]2NC(=O)[C@H]([C@@H](C)O)NC(=O)[C@@H]3[C@@H]4CCN3C(=O)[C@@H]3Cc5cn(c6ccc(F)cc56)CCCCCCN(Cc5ccc(cc5)CCNC(=O)[C@]5(C)CCCN5C2=O)C(=O)CCC(=O)N[C@@H](C)C(=O)N[C@H](CNC(=O)COCCOCCOCCOCCNC(=O)CCCCC[N+](C)(C)CCNC(=O)COCCOCCNC(=O)COCCOCCNC(=O)CC[C@@H](NC(=O)CCCCCCCCCCCCCCCCC(=O)O)C(=O)O)C(=O)N[C@@H](Cc2cccc(c2)CNC(=O)CO4)C(=O)N3)cc1 [Ex-28]	0.013	0.01	< 1.26		
COc1ccc(C[C@@H]2NC(=O)[C@H]([C@@H](C)O)NC(=O)[C@@H]3[C@@H]4CCN3C(=O)[C@@H]3Cc5cn(c6ccc(F)cc56)CCCCCCN(Cc5ccc(cc5)CCNC(=O)[C@]5(C)CCCN5C2=O)C(=O)CCC(=O)N[C@@H](C)C(=O)N[C@H](CNC(=O)CCOCCOCC[N+](C)(C)CCNC(=O)CC[C@H](NC(=O)COCCOCCNC(=O)CC[C@H](NC(=O)CCCCCCCCCCCCCCCCC(=O)O)C(=O)O)C(=O)O)C(=O)N[C@@H](Cc2cccc(c2)CNC(=O)CO4)C(=O)N3)cc1 [Ex-54]	0.021	0.014	< 1.26		
COc1ccc(C[C@@H]2NC(=O)[C@H]([C@@H](C)O)NC(=O)[C@@H]3[C@@H]4CCN3C(=O)[C@@H]3Cc5cn(c6ccc(F)cc56)CCCCCCN(Cc5ccc(cc5)CCNC(=O)[C@]5(C)CCCN5C2=O)C(=O)CCC(=O)N[C@@H](C)C(=O)N[C@H](CNC(=O)CCCCC[N+](C)(C)CCNC(=O)COCCOCCNC(=O)COCCOCCNC(=O)CC[C@H](NC(=O)CCCCCCCCCCCCCCCCC(=O)O)C(=O)O)C(=O)N[C@@H](Cc2cccc(c2)CNC(=O)CO4)C(=O)N3)cc1 [Example 2]			< 1.26	0.014	0.006
COc1ccc(C[C@@H]2NC(=O)[C@H]([C@@H](C)O)NC(=O)[C@@H]3[C@@H]4CCN3C(=O)[C@@H]3Cc5cn(c6ccc(F)cc56)CCCCCCN(Cc5ccc(cc5)CCNC(=O)[C@]5(C)CCCN5C2=O)C(=O)CCC(=O)N[C@@H](CNC(=O)COCCOCC[N+](C)(C)CCNC(=O)COCCOCCNC(=O)COCCOCCNC(=O)CC[C@H](NC(=O)CCCCCCCCCCCCCCCCC(=O)O)C(=O)O)C(=O)N[C@H](CNC(=O)CCOCCOCC[N+](C)(C)C)C(=O)N[C@@H](Cc2cccc(c2)CNC(=O)CO4)C(=O)N3)cc1 [Ex-65]	< 0.006	0.024	< 1.26		
CCCCCCC(=O)NCCCCCCCC(=O)NCC[N+](C)(C)CCOCCOCCC(=O)NC[C@H]1NC(=O)[C@H](C)NC(=O)CCC(=O)N2CCCCCCn3cc(c4cc(F)ccc43)C[C@@H]3NC(=O)[C@H](Cc4cccc(c4)CNC(=O)CO[C@H]4CCN(C3=O)[C@@H]4C(=O)N[C@@H]([C@@H](C)O)C(=O)N[C@@H](Cc3ccc(OC)cc3)C(=O)N3CCC[C@@]3(C)C(=O)NCCc3ccc(cc3)C2)NC1=O [Ex-20]	< 0.006	0.001	< 1.26		
COc1ccc(C[C@@H]2NC(=O)[C@H]([C@@H](C)O)NC(=O)[C@@H]3[C@@H]4CCN3C(=O)[C@@H]3Cc5cn(c6ccc(F)cc56)CCCCCCN(Cc5ccc(cc5)CCNC(=O)[C@]5(C)CCCN5C2=O)C(=O)CCC(=O)N[C@@H](C)C(=O)N[C@H](CNC(=O)COCC[N+](C)(C)CCOCCNC(=O)COCCOCCNC(=O)COCCOCCNC(=O)CC[C@H](NC(=O)CCCCCCCCCCCCCCCCC(=O)O)C(=O)O)C(=O)N[C@@H](Cc2cccc(c2)CNC(=O)CO4)C(=O)N3)cc1 [Ex-35]	0.007	0.009	< 1.26		
COc1ccc(C[C@@H]2NC(=O)[C@H]([C@@H](C)O)NC(=O)[C@@H]3[C@@H]4CCN3C(=O)[C@@H]3Cc5cn(c6ccc(F)cc56)CCCCCCN(Cc5ccc(cc5)CCNC(=O)[C@]5(C)CCCN5C2=O)C(=O)CCC(=O)N[C@@H](C)C(=O)N[C@H](CNC(=O)COCCOCCNC(=O)CCCCC[N+](C)(C)CCNC(=O)COCCOCCNC(=O)COCCOCCNC(=O)CC[C@H](NC(=O)CCCCCCCCCCCCCCCCC(=O)O)C(=O)O)C(=O)N[C@@H](Cc2cccc(c2)CNC(=O)CO4)C(=O)N3)cc1 [Ex-6]			< 1.26	0.009	0.012
COc1ccc(C[C@@H]2NC(=O)[C@H]([C@@H](C)O)NC(=O)[C@@H]3[C@@H]4CCN3C(=O)[C@@H]3Cc5cn(c6ccc(F)cc56)CCCCCCN(Cc5ccc(cc5)CCNC(=O)[C@]5(C)CCCN5C2=O)C(=O)CCC(=O)N[C@@H](CNC(=O)CCOCCOCC[N+](C)(C)CCNC(=O)COCCOCCNC(=O)COCCOCCNC(=O)CC[C@H](NC(=O)CC[C@H](NC(=O)CCCCCCCCCCCCCCCCC(=O)O)C(=O)O)C(=O)O)C(=O)N[C@H](C)C(=O)N[C@@H](Cc2cccc(c2)CNC(=O)CO4)C(=O)N3)cc1 [Ex-58]	0.018	0.079	< 1.26		
